This assay addresses P2Y purinoceptor 1 (Homo sapiens, UniProt P47900). Put plainly: Scintillation Proximity Assay (SPA): A SPA membrane binding assay was used to identify inhibitors of [33P] […] Binding reactions were performed in 384-well OptiPlates (PerkinElmer Life Sciences, Cat #6007299) in a volume of 50 μL containing 15 fmol of P2Y1 receptor (1.7 μg of total protein), 0.3 nM [33P] […] Reactions were allowed to proceed to completion at room temperature for 1 hour followed by centrifugation of the plate for 5 min. About 40 μL of the aqueous solution was aspirated. Plates were sealed and the [33P]. (In general: Scintillation proximity formats need no separation of bound from free tracer.)
P2Y purinoceptor 1, sequence (P47900 whole entry): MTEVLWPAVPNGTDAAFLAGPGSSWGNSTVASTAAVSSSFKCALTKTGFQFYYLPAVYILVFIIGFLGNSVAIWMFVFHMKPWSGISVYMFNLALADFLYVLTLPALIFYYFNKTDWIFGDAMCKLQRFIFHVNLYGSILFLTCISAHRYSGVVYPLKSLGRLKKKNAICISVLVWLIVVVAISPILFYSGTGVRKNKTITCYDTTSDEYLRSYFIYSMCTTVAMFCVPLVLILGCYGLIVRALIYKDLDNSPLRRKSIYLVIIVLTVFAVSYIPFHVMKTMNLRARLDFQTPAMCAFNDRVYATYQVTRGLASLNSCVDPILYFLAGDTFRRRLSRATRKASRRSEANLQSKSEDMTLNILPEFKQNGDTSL
Turning to `CC1(C)CN(c2ccccc2NC(=O)Nc2ccc(OC(F)(F)F)cc2)c2c(O)cc(F)c(-c3ccc(Cl)s3)c21`, the Ki (commonly a measure of affinity in units of concentration, obtained from inhibition or displacement) amounted to 9.5 nM. Under `CC1(C)CN(c2ccccc2NC(=O)Nc2ccc(OC(F)(F)F)cc2)c2c(O)c(F)cc(-c3nc4cc(Cl)ccc4s3)c21` stands 52 nM.

Regarding `CC1(C)CN(c2ccccc2NC(=O)Nc2ccc(OC(F)(F)F)cc2)c2c(O)ccc(-c3nc4ccc(Cl)cc4s3)c21`, the affinity, expressed as Ki, was 13 nM. Under `CC1(C)CN(c2ccccc2NC(=O)Nc2csc(Cl)n2)c2c(O)cc(F)c(-c3nc4cc(Cl)ccc4s3)c21` stands 13 nM. Take `CC1(C)CN(c2ccccc2NC(=O)Nc2nc3ccc(Cl)nc3s2)c2c(O)cc(F)c(-c3nc4ccc(F)cc4s3)c21`: the Ki was determined as 16 nM. For `CC1(C)CN(c2ccccc2NC(=O)Nc2nc3ccc(Cl)cc3s2)c2c(O)cc(F)c(-c3nc4cc(Cl)ccc4s3)c21`, the affinity corresponds to a Ki of 98 nM. The compound `CC1(C)CN(c2ccccc2NC(=O)Nc2nc3ccc(F)cc3s2)c2c(O)cc(F)c(-c3nc4cc(Cl)ccc4s3)c21` yielded a Ki of 48 nM. Then `CC1(C)CN(c2ccccc2NC(=O)Nc2nc3ccc(Cl)nc3s2)c2c(O)cc(F)c(-c3nc4cc(Cl)ccc4s3)c21`, with 39 nM; and `COc1cncc(-c2ccc(O)c3c2C(C)(C)CN3c2ccccc2NC(=O)Nc2ccc(OC(F)(F)F)cc2)c1`, with 9.9 nM. In turn, `CC1(C)CN(c2ccccc2NC(=O)Nc2nc3ccc(Cl)cc3s2)c2c(O)ccc(-c3nc4cc(F)ccc4s3)c21` had a Ki of 17 nM. Under `CC1(C)CN(c2ccccc2NC(=O)Nc2nc3ccc(Cl)nc3s2)c2c(O)cc(F)c(-c3ccc(Cl)s3)c21` stands 8.2 nM; under `CC1(C)CN(c2ccccc2NC(=O)Nc2ccc(OC(F)(F)F)cc2)c2c(O)ccc(-c3ccc(F)nc3)c21`, 13 nM.

The compound `CC1(C)CN(c2ccccc2NC(=O)Nc2nc3ccc(F)cc3s2)c2c(O)ccc(-c3nc4ccc(Cl)cc4s3)c21` returned a Ki of 78 nM. Then `CC1(C)CN(c2ccccc2NC(=O)Nc2nc3ccc(Cl)cc3s2)c2c(O)cc(F)c(-c3nc4ccc(F)cc4s3)c21`, with 90 nM.

Values taken from ChEMBL document CHEMBL5725427, “7-hydroxy-indolinyl antagonists of P2Y1 receptor” (2017).
